From publication PMC4805298, “Activation of Plant Innate Immunity by Extracellular High Mobility Group Box 3 and Its Inhibition by Salicylic Acid” (PLoS Pathogens, 2016)

Experiments:
HMGB3 [1] = target: T1, HMGB3 (Arabidopsis thaliana, UniProt P93047); assay: photoaffinity crosslinking, immunoblot with anti-SA antibody; format: binding; settings: 50 uM 4AzSA, PBS, on ice, 254 nm UV 30 mJ; covalent
T1 construct: ORF in pET30 Xa/LIC, 6xHis-tagged, E. coli BL21, Ni-NTA and Superdex 200 purified; ABRC ORF clone
T1 sequence (P93047 1-141): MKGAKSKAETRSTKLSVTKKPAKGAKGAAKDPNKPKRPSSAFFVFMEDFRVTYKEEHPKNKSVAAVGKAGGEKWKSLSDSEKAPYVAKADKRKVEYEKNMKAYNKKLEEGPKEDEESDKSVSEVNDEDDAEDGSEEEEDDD

HMGB3 [2] = target: T1, HMGB3; assay: SPR competition on 3AESA chip; competition of 4AzSA photoaffinity crosslinking; format: binding; settings: 1 uM HMGB3 in SPR; 50 uM 4AzSA in PBS for crosslinking; competitive

SMILES | photoaffinity crosslinking, immunoblot with anti-SA antibody (HMGB3 [1]) | SPR competition on 3AESA chip; competition of 4AzSA photoaffinity crosslinking (HMGB3 [2])
[N-]=[N+]=Nc1ccc(C(=O)O)c(O)c1 [4AzSA, 4-azido SA] | HMGB3 was effectively crosslinked to 4AzSA by UV irradiation | –
O=C(O)c1ccccc1O [SA, salicylic acid] | – | this binding was competed in the presence of increasing concentrations of SA
